Legend:
[1] = in vivo; cited from earlier work
rat = conditions: orally, 1 mg/kg, cited from earlier work
sheep [2] = experiment: Intravenous and aerosolized UT-15 dose response during U44069 induced pulmonary hypertension (Example V); type: in vivo; conditions: U44069 infused intravenously at 1 ng per kg per min
Description: Sheep were used as the animal model of choice for these experiments for a number of reasons. First is the docile nature of sheep. They will stand quietly in metabolic cages without having to utilize tranquilizing drugs, which have the potential to complicate experimental results. Second, sheep are large enough to allow direct measurement of CO, PPA, PLA, PCV, and PSYS. Sheep are also large enough to allow direct aerosolization of substances into the lung via trachoestomy thereby preventing swallowing of drugs and thus eliminating a possible secondary route of administration of UT-15. Third, sheep can tolerate a great amount of instrumentation with little or no discomfort. Fourth, sheep have been utilized for several years as an animal model of pulmonary arterial hypertension and thus, there is a great amount of historical data with which to compare the results. […] The reasons for using U44069 are that it is a very potent pulmonary vasoconstrictor, its characteristics are very similar to endogenously formed thromboxane A2, and it can be titrated to induce the desired degree of pulmonary vasoconstriction. U44069 was mixed with sterile normal saline immediately prior to being used and was protected from light by wrapping the solution with aluminum foil. The concentration of U44069 was adjusted such that a minimal flow rate of 0.8 ml per min was being infused into the sheep. This was done because more concentrated U44069 would have to be infused at very low rates and often causes “pulses” of U44069 due to the infusion characteristics of roller pumps. The U44069 pulses cause vasoconstriction “spikes” and thus would create induce a non-steady-state. Six yearling sheep (3 males, 3 females; 21-37 kg) were fasted 18-24 hours and initially anesthetized with a short acting barbiturate (thiopental) to allow intubation of the sheep. Halothane gas anesthesia (1.5-2.5%) was then used for the surgical procedures. Via a left thoracotomy, a Transonic blood flow probe was placed around the main pulmonary artery, silastic catheters placed in the main pulmonary artery and left atrium. After approximately 7 days the sheep were reanesthetized and the left carotid artery cannulated, a Cordis Introducer Sheath inserted in the left jugular vein, and a tracheotomy made. The sheep were allowed to recover for another 3-5 days prior to experimentation. These sheep were used to allow measurement of pulmonary arterial pressure (PPA), left atrial pressure (PLA), central venous pressure (PCV), systemic arterial pressure (PSYS), heart rate (HR), and cardiac output (CO) after baseline measurements were made for a minimum of 30 minutes. Two separate experiments were conducted to determine the dose response effects of intravenously infused UT-15 and aerosolized UT-15 during U44069 induced pulmonary hypertension. After a 30 minute baseline was established, U44069 was infused intravenously at a rate of 1 ng per kg per min. For the intravenous administration of UT-15 and after allowing the sheep to achieve a steady-state for 30-60 minutes, a dose-response to intravenous UT-15 was similar to that set forth in Example IV. For the aerosolized administration of UT-15 and after allowing the sheep to achieve a steady-state for 30-60 minutes, a dose-response to intravenous UT-15 was similar to that set forth in Example IV. In each experimental protocol, UT-15 was administered to three sheep for 30 minutes and to the other three sheep for 60 minutes.

sheep [3] = experiment: Prolonged U44069 intravenous infusion, pulmonary vascular resistance and hemodynamics (Example II); type: in vivo
Description: Sheep were used as the animal model of choice for these experiments for a number of reasons. First is the docile nature of sheep. They will stand quietly in metabolic cages without having to utilize tranquilizing drugs, which have the potential to complicate experimental results. Second, sheep are large enough to allow direct measurement of CO, PPA, PLA, PCV, and PSYS. Sheep are also large enough to allow direct aerosolization of substances into the lung via trachoestomy thereby preventing swallowing of drugs and thus eliminating a possible secondary route of administration of UT-15. Third, sheep can tolerate a great amount of instrumentation with little or no discomfort. Fourth, sheep have been utilized for several years as an animal model of pulmonary arterial hypertension and thus, there is a great amount of historical data with which to compare the results. The agent chosen to induce pulmonary arterial hypertension was a PGH2 analog, U44069 (9,11-dideoxy,9α,11α-epoxymethanoprostaglandin F2α). The reasons for using U44069 are that it is a very potent pulmonary vasoconstrictor, its characteristics are very similar to endogenously formed thromboxane A2, and it can be titrated to induce the desired degree of pulmonary vasoconstriction. U44069 was mixed with sterile normal saline immediately prior to being used and was protected from light by wrapping the solution with aluminum foil. The concentration of U44069 was adjusted such that a minimal flow rate of 0.8 ml per min was being infused into the sheep. This was done because more concentrated U44069 would have to be infused at very low rates and often causes “pulses” of U44069 due to the infusion characteristics of roller pumps. The U44069 pulses cause vasoconstriction “spikes” and thus would create induce a non-steady-state.
Six yearling sheep (3 males, 3 females; 21-37 kg) were fasted 18-24 hours and initially anesthetized with a short acting barbiturate (thiopental) to allow intubation of the sheep. Halothane gas anesthesia (1.5-2.5%) was then used for the surgical procedures. Via a left thoracotomy, a Transonic blood flow probe was placed around the main pulmonary artery, silastic catheters placed in the main pulmonary artery and left atrium. After approximately 7 days the sheep were reanesthetized and the left carotid artery cannulated, a Cordis Introducer Sheath inserted in the left jugular vein, and a tracheotomy made. The sheep were allowed to recover for another 3-5 days prior to experimentation. These sheep were used to allow measurement of pulmonary arterial pressure (PPA), left atrial pressure (PLA), central venous pressure (PCV), systemic arterial pressure (PSYS), heart rate (HR), and cardiac output (CO) after baseline measurements were made for a minimum of 30 minutes.
In four sheep, the ability of U44069 to maintain a steady-state increase in PVR was determined. After a 30 minute baseline, U44069 was infused at a rate of 1 microgram per kg of body weight per minute for 180 minutes. […] In particular, FIG. 9 illustrates that intravenously infused U44069 causes PVR to reach a steady-state increase by 30 minutes and that the steady-state increase lasts for a minimum of 180 minutes. U44069 caused significant alterations in other variables (data not shown) over the 180 minute infusion period relative to their baseline values: PPA increased, HR decreased, CO decreased.

[4] = U44069 iv 1 microgram per kg per minute for 180 minutes, four sheep
[5] = U44069 iv 1 microgram per kg per minute, 180 minute infusion

Question: Which plasma half life [1] does the source give for CCCCC[C@H](O)CC[C@@H]1[C@H]2Cc3cccc(OCC(=O)[O-])c3C[C@H]2C[C@H]1O.[Na+] [Treprostinil sodium] here?
Answer: Its plasma half life is “more than 4 hours”.

Question: For CCCCC[C@H](O)CC[C@@H]1[C@H]2Cc3cccc(OCC(=O)OC)c3C[C@H]2C[C@H]1O [9-deoxy-2′,9α-methano-3-oxa-4,5,6-trinor-3,7-(1′,3′-interphenylene)-PGF1, methyl ester], which “blood pressure still lower after 52 min” value (rat; after 52 min) is on record?
Answer: Its value is 14 mm.

Question: And the lowered blood pressure (rat)?
Answer: Its lowered blood pressure is 44 mmHg.

Question: What does the source list for CCCCC[C@H](O)/C=C/C1C2COC(C2)C1C/C=C\CCCC(=O)O (stereo partly drawn) [U44069, 9,11-dideoxy,9α,11α-epoxymethanoprostaglandin F2α]?
Answer: PPA relative to baseline (sheep [2]): significantly increased; PVR (sheep [2]): dramatic increase; cardiac output relative to baseline (sheep [2]): decrease; left atrial pressure (sheep [2]): did not alter; duration of steady-state increase in PVR (sheep [3]; [4]): ≥ 180 min; time for PVR to reach a steady-state increase (sheep [3]; [4]): ≤ 30 min; cardiac output (CO) relative to baseline (sheep [3]; [5]): decreased; heart rate (HR) relative to baseline (sheep [3]; [5]): decreased; pulmonary arterial pressure (PPA) relative to baseline (sheep [3]; [5]): increased; left atrial pressure (PLA) relative to baseline (sheep [3]; U44069 iv infusion, any time point): did not significantly change; central venous pressure (PCV) relative to baseline (sheep [3]; U44069 iv infusion, significant only at 30 and 60 minutes): increased; systemic arterial pressure (PSYS) relative to baseline (sheep [3]; U44069 iv infusion, statistically different only at 120, 150 and 180 minutes): increased above baseline values

Source: patent publication US10076505B2, “Inhalation formulations of Treprostinil” (priority 2003, dated 2018)
